Test results as given in patent US12624027B2, “Salts and polymorphic forms of 6-chloro-7-(4-(4-chlorobenzyl)piperazin-1-yl)-2-(1,3-dimethyl-1H-pyrazol-4-yl)-3H-imidazo[4,5-b]pyridine” (ELLIPSES PHARMA LTD, priority 2020, dated 2026).
“Also recorded” adds a separate entry of the source. Where a name gives a salt, the structure may show the parent alone. Read-outs that look alike come from different tables or passages of the source.

Experiments:
Assay type in all cases: physicochemical
[1] = Dynamic vapour sorption (DVS), hygroscopicity; conditions: for form change, hydration or dehydration after DVS (XRPD of recovered solids): after sorption/desorption cycles; for DVS uptake (weight increase): 25° C.
Protocol: Approximately, 10-20 mg of sample was placed into a mesh vapor sorption balance pan and loaded into a DVS Intrinsic dynamic vapour sorption balance by Surface Measurement Systems. The sample was subjected to a ramping profile from 40-90% relative humidity (RH) at 10% increments, maintaining the sample at each step until a stable weight had been achieved (dm/dt 0.004%, minimum step length 30 minutes, maximum step length 500 minutes) at 25° C. After completion of the sorption cycle, the sample was dried using the same procedure to 0% RH and then a second sorption cycle back to 40% RH. Two cycles were performed. The weight change during the sorption/desorption cycles were plotted, allowing for the hygroscopic nature of the sample to be determined. XRPD analysis was then carried out on any solid retained.

[2] = Stability of the crystalline form in organic solvents and on handling (XRPD)
Protocol: XRPD analysis was carried out on a PANalytical X'pert pro with PIXcel detector (128 channels), scanning the samples between 3 and 35° 2θ. The material was gently ground to release any agglomerates and loaded onto a multi-well plate with Kapton or Mylar polymer film to support the sample. The multi-well plate was then placed into the diffractometer and analyzed using Cu K radiation (α1 λ=1.54060 Å; α2=1.54443 Å; β=1.39225 Å; α1:α2 ratio=0.5) running in transmission mode (step size 0.01300 2θ, step time 18.87 s) using 40 kV/40 mA generator settings. Data were visualized and images generated using the HighScore Plus 4.7 desktop application (PANalytical, 2017).
A slurry of Compound A fumarate lyophile is prepared by adding aliquots of solvent to the lyophile until a mobile slurry was observed. Solvents and volumes can be found in Table 1 below. The slurries are temperature cycled with agitation, between ambient (ca. 25° C.) and 40° C. in 4-hour cycles over 72 hours. Post-temperature cycling the samples were filtered via centrifugation. Isolated solids can be analysed by XRPD.

[3] = Long term-storage stability of Form 7
[4] = Aqueous solubility of Compound A salts (salt assessment)
Protocol: The mono-mesylate, di-mesylate, mono-hydrochloride, di-hydrochloride and fumarate salts of Compound A were assessed for compliance with the following properties identified by the inventors as being relevant to pharmaceutical suitability:
Aqueous solubility was determined by weighing out ˜3 mg of the salt form into a clean HPLC vial, adding HPLC grade water, shaking, vortexing, and/or sonicating to mix and aid dissolution as necessary. Once fully dissolved (clear solution) solubility is calculated based on the amount of water added. HPLC purity and DVS can be determined using methods described herein or methods known in the art. Processability is based on solubility of the salt form in certain excipients. Automated elemental analysis can be performed with 10 mg of the Compound A salt, using caffeine as a reference material. CHNX and the stoichiometry of the salt to the Compound A is determined. Dissolution was determined across 4 pH values (2.0, 3.8, 5.3, 7.2) using a Sirius T3 module, SOP 2070 and 2071, with 5 to 10 mg of Compound A salt compressed into a tablet disc.

[5] = Thermodynamic solubility assessment in biological media (FaSSIF, FeSSIF, FaSSGF), HPLC of mother liquors
Protocol: The thermodynamic solubility of Compound A free base, Compound A fumarate Form 1 and Compound A hemi-fumarate Form 3 was assessed in 3 biological media: Fasted State Simulated Intestinal Fluid (FaSSIF); Fed State Simulated Intestinal Fluid (FeSSIF) and Fasted State Simulated Gastric Fluid (FaSSGF).
The following procedure was carried out. Approximately 10 mg of material was weighed into 3×1.5 mL glass vials. 0.02 mL aliquots of appropriate buffer were added to each vial until a final concentration of 10 mg/mL was obtained. The samples were then filtered via centrifugation and the mother liquors analyzed by HPLC.

[6] = 1-week stability study of Form 3 (XRPD and HPLC)
Protocol: The stability of Compound A fumarate Form 3 was assessed under ambient and stressed conditions. The following procedure was carried out. Approximately 20 mg of material was added to 3×1.5 mL glass vials. The vials were then stored under the following conditions: • Ambient light and temperature (closed vial) • 40° C./75% RH (open vial) • 80° C. (closed vial)
After 1 week the samples were collected and analyzed by XRPD and HPLC.

[7] = Stability of Form 1 on storage (appearance, HPLC, water content, XRPD)
Protocol: The stability of Form 1 was tested for compliance with the following stability acceptance criteria:
Form 1 was prepared as described in Example X above. The following amounts of Form 1 were weighed into 30 ml HDPE Nalgene containers:
Each container was placed into a small grip-seal bag and incubated at the conditions above.
Visual appearance and purity by HPLC were assessed periodically (at 0, 1, 3, 6, 9, 12, and 24 months). Water content was assessed at 0, 1, 6, and 12 months by Karl Fisher titration and TGA. XRPD spectra were taken at 0, 1, 3 and 6 months.

[8] = Ambient light and temperature (closed vial)

Structure (SMILES): Cc1nn(C)cc1-c1nc2c(N3CCN(Cc4ccc(Cl)cc4)CC3)c(Cl)cnc2[nH]1 [Form 7, 6-chloro-7-(4-(4-chlorobenzyl)piperazin-1-yl)-2-(1,3-dimethyl-1H-pyrazol-4-yl)-3H-imidazo[4,5-b]pyridine]
- hygroscopicity (in words) [1]: only slightly hygroscopic
- change in form on handling in organic solvents (XRPD) ([2]; methanol and TBME): without any change in form
- stability under long term-storage conditions [3]: stable

Structure (SMILES): Cc1nn(C)cc1-c1nc2c(N3CCN(Cc4ccc(Cl)cc4)CC3)c(Cl)cnc2[nH]1 [Form 6, 6-chloro-7-(4-(4-chlorobenzyl)piperazin-1-yl)-2-(1,3-dimethyl-1H-pyrazol-4-yl)-3H-imidazo[4,5-b]pyridine]
- change in form on handling in solvent (XRPD) ([2]; DMSO): without any change in form

Structure (SMILES): Cc1nn(C)cc1-c1nc2c(N3CCN(Cc4ccc(Cl)cc4)CC3)c(Cl)cnc2[nH]1 [Compound A mesylate, 6-chloro-7-(4-(4-chlorobenzyl)piperazin-1-yl)-2-(1,3-dimethyl-1H-pyrazol-4-yl)-3H-imidazo[4,5-b]pyridine]
- solubility compared to the free base of Compound A ([4]; aqueous): unexpectedly large increase in solubility

Structure (SMILES): Cc1nn(C)cc1-c1nc2c(N3CCN(Cc4ccc(Cl)cc4)CC3)c(Cl)cnc2[nH]1 [Form 4, 6-chloro-7-(4-(4-chlorobenzyl)piperazin-1-yl)-2-(1,3-dimethyl-1H-pyrazol-4-yl)-3H-imidazo[4,5-b]pyridine]
- stability in organic solvents (XRPD) ([2]; 1,4-dioxane): stable
- form change on drying ([2]; drying): converts to Form 2

Structure (SMILES): Cc1nn(C)cc1-c1nc2c(N3CCN(Cc4ccc(Cl)cc4)CC3)c(Cl)cnc2[nH]1 [Form 5, 6-chloro-7-(4-(4-chlorobenzyl)piperazin-1-yl)-2-(1,3-dimethyl-1H-pyrazol-4-yl)-3H-imidazo[4,5-b]pyridine]
- change in form on handling in organic solvents (XRPD) ([2]; benzyl alcohol): without any change in form

Structure (SMILES): Cc1nn(C)cc1-c1nc2c(N3CCN(Cc4ccc(Cl)cc4)CC3)c(Cl)cnc2[nH]1 [Form 3, 6-chloro-7-(4-(4-chlorobenzyl)piperazin-1-yl)-2-(1,3-dimethyl-1H-pyrazol-4-yl)-3H-imidazo[4,5-b]pyridine]
- Concentration (thermodynamic solubility) ([5]; FaSSGF pH 1.6, listed as Compound A fumarate form 3): 2000 µg/mL
- Concentration (thermodynamic solubility) ([5]; FaSSIF pH 6.5, listed as Compound A fumarate form 3): <100 µg/mL
- solubility thermodynamic ([5]; FaSSIF, pH 6.5, fassif, thermodynamic from solid, FaSSIF pH 6.5, read-out: Concentration (thermodynamic solubility)): < 100 µg/mL
- Concentration (thermodynamic solubility) ([5]; FeSSIF pH 5.0, listed as Compound A fumarate form 3): <100 µg/mL
- form change, hydration or dehydration after DVS (XRPD of recovered solids) [1]: No evidence of hydration or dehydration
- DVS uptake (weight increase) ([1]; at 90% RH): ca. 0.5 wt. %
- Purity (% area) after storage ([6]; 40° C./75% RH (open vial)): 99.5 % area
- XRPD form after storage ([6]; 40° C./75% RH (open vial)): Form 3
- Purity (% area) after storage ([6]; 80° C. (closed vial)): 99.6 % area
- XRPD form after storage ([6]; 80° C. (closed vial)): Form 3
- Purity (% area) after storage [6, 8]: 99.6 % area
- XRPD form after storage [6, 8]: Form 3
- changes in purity after storage ([6]; all three storage conditions): No changes in purity
- visual changes after storage ([6]; all three storage conditions): No visual changes
- change in form on handling in organic solvents (XRPD) ([2]; dimethoxymethane, 2-MeTHF, water:MeOH, EtOAc, IPA, MEK, MIBK, THF, acetone, acetonitrile): without change in form

Structure (SMILES): Cc1nn(C)cc1-c1nc2c(N3CCN(Cc4ccc(Cl)cc4)CC3)c(Cl)cnc2[nH]1 [Form 1, 6-chloro-7-(4-(4-chlorobenzyl)piperazin-1-yl)-2-(1,3-dimethyl-1H-pyrazol-4-yl)-3H-imidazo[4,5-b]pyridine]
- Concentration (thermodynamic solubility) ([5]; FaSSGF pH 1.6, listed as Compound A fumarate form 1): 3400 µg/mL
- Concentration (thermodynamic solubility) ([5]; FaSSIF pH 6.5, listed as Compound A fumarate form 1): insoluble; also recorded: Below LOD
- Concentration (thermodynamic solubility) ([5]; FeSSIF pH 5.0, listed as Compound A fumarate form 1): 300 µg/mL
- form change, hydration or dehydration after DVS (XRPD of recovered solids) [1]: No evidence of form change
- DVS uptake as equivalents of water ([1]; at 90% RH): 0.07 equivalents of water
- DVS uptake (weight increase) ([1]; at 90% RH): 0.7 wt. %
- changes in XRPD / form on storage ([7]; 0, 1, 3 and 6 months, ambient and accelerated conditions): no significant changes; also recorded: no changes in XRPD
- levels of impurities (HPLC) ([7]; 5° C., 25° C./60% RH, 40° C./75% RH, 55° C., over 24 months): ≤ 0.6%
- water content ([7]; after 12 months, Karl Fisher titration and TGA): below the limit of quantification
- changes in mass ([7]; storage at 5° C., 25° C./60% RH, 40° C./75% RH, 55° C.): negligible
- change in form upon exposure to organic solvents (XRPD) ([2]; 1-butanol, 1-propanol, 2-ethoxyethanol, acetone, acetonitrile, MEK, THF, 1,1-dimethoxymethane, or DMSO): no change in form

Structure (SMILES): Cc1nn(C)cc1-c1nc2c(N3CCN(Cc4ccc(Cl)cc4)CC3)c(Cl)cnc2[nH]1 [Form 2, 6-chloro-7-(4-(4-chlorobenzyl)piperazin-1-yl)-2-(1,3-dimethyl-1H-pyrazol-4-yl)-3H-imidazo[4,5-b]pyridine]
- change in form (XRPD peaks, spectra, unit cell) ([2]; 1,4-dioxane and lyophilisation conditions): no change in the characteristic XRPD peaks, spectra, or unit cell

Structure (SMILES): Cc1nn(C)cc1-c1nc2c(N3CCN(Cc4ccc(Cl)cc4)CC3)c(Cl)cnc2[nH]1 [Compound A fumarate, 6-chloro-7-(4-(4-chlorobenzyl)piperazin-1-yl)-2-(1,3-dimethyl-1H-pyrazol-4-yl)-3H-imidazo[4,5-b]pyridine]
- solubility ([4]; HPLC grade water, water, thermodynamic from solid): 50 to 4000 µg/mL
- hygroscopicity (in words) ([1]; listed as fumarate salt): unexpectedly low hygroscopicity
- hygroscopicity (in words) ([1]; listed as fumarate salt of Compound A): only slightly hygroscopic

Structure (SMILES): Cc1nn(C)cc1-c1nc2c(N3CCN(Cc4ccc(Cl)cc4)CC3)c(Cl)cnc2[nH]1 [Form 8, 6-chloro-7-(4-(4-chlorobenzyl)piperazin-1-yl)-2-(1,3-dimethyl-1H-pyrazol-4-yl)-3H-imidazo[4,5-b]pyridine]
- stability in organic solvents ([2]; benzyl alcohol): stable
